“Also recorded” adds a separate entry of the source. Like-named read-outs stand apart in the source and are kept apart here.
Key:
[1] = target: T1, 15-lipoxygenase derived from soybean (Glycine max, UniProt P08170); test: Lipoxygenase inhibitor screening assay kit; conditions: for lipoxygenase inhibition (in words): 1, 10 and 250 μg/mL tested, versus control; for lowest concentration inhibiting lipoxygenase: soybean 15-lipoxygenase, linoleic acid substrate
T1 sequence (P08170 1-839): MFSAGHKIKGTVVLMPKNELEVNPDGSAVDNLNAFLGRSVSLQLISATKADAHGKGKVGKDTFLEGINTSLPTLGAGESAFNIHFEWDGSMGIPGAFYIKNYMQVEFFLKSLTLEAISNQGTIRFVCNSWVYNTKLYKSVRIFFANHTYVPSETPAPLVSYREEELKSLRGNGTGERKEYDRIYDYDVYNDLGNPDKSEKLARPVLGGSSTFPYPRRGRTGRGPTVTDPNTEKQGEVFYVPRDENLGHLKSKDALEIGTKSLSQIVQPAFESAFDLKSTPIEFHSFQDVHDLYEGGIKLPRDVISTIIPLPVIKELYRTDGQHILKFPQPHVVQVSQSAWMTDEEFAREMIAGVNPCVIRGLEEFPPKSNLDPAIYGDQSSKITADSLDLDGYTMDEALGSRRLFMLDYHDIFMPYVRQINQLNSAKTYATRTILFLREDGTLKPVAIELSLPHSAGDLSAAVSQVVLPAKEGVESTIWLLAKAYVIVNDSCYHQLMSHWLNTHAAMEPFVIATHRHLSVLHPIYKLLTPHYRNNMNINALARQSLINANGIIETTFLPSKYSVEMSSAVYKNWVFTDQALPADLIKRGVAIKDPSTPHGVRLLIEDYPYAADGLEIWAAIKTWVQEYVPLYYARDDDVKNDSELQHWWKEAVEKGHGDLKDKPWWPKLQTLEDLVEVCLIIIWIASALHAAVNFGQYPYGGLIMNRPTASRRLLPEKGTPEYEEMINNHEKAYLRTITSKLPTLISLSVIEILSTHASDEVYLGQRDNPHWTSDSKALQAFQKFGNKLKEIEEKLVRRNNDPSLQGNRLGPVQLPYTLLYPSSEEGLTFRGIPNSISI

PCAF = target: T2, PCAF (Homo sapiens, UniProt Q92831); test: PCAF inhibitor screening assay kit (fluorescence); assay type: biochemical; conditions: for IC50: mean ± SD
T2 construct: purchased Cayman 10006515
T2 sequence (Q92831 492-658 limits assumed): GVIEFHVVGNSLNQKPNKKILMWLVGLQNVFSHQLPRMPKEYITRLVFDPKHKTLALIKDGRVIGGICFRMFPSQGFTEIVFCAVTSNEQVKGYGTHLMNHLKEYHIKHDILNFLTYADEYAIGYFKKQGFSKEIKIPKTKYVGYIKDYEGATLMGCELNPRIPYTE
Experimental: Curcuminoids were tested for direct HDAC1 and PCAF inhibitory activity using the fluorescent-based HDAC1 or PCAF inhibitor screening assay kit ((HDAC1) 10011564, (PCAF) 10006515, Cayman, Ann Arbor, MI, USA) according to manufacturer’s instructions.
(§1) Data for the PCAF and HDAC1 inhibition and viability assays were used to derive percent changes based on no treatment controls. Each of three data sets were then fit to a 4-parameter logistic regression using SigmaPlot 12.2 to derive IC50 values, which were then used to determine the mean and SD.

COX-2 = target: T3, COX-2 (Homo sapiens, UniProt P35354); test: COX inhibitor screening assay kit, COX-2; assay type: biochemical; conditions: for COX-2/COX-1 IC50 ratio: COX-2 IC50 divided by COX-1 IC50
T3 construct: purchased Cayman Chemical 560131
T3 sequence (P35354 18-604): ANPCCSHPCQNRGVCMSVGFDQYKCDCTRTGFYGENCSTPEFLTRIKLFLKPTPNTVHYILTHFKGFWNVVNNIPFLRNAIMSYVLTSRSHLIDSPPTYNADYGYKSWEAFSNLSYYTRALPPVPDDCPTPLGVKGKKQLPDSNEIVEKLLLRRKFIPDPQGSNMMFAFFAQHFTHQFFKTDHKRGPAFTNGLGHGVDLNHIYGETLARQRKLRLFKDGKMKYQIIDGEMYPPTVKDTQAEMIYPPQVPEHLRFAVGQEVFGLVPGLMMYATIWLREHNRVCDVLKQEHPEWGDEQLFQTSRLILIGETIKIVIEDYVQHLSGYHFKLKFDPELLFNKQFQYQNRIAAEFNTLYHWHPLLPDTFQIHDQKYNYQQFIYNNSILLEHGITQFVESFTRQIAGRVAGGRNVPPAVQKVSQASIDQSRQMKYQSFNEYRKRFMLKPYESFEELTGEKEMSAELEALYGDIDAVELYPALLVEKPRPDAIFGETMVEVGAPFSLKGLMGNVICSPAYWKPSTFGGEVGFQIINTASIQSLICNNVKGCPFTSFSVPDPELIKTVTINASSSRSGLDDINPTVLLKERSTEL

HDAC1 = target: T4, HDAC1 (Homo sapiens, UniProt Q13547); test: HDAC1 inhibitor screening assay kit (fluorescence); assay type: biochemical
T4 construct: purchased Cayman 10011564
T4 sequence (Q13547 whole entry): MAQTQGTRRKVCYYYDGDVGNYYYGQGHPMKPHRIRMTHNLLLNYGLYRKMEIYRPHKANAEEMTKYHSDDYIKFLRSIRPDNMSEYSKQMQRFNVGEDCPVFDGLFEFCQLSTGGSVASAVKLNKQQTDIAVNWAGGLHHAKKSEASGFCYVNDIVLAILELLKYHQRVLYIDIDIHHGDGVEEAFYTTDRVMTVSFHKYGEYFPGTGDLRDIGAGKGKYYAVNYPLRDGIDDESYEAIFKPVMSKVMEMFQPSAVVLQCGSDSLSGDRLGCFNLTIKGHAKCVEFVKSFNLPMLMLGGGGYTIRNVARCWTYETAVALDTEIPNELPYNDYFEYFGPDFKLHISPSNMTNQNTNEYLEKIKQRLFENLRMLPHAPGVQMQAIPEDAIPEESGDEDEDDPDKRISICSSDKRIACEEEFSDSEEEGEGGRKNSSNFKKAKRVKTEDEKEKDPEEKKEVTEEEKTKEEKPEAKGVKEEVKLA

CYP2D6 = CYP2D6 (Homo sapiens, UniProt P10635); test: Vivid CYP450 screening kit, CYP2D6; conditions: 0.01-100 μM
CYP2D6, sequence (P10635 whole entry): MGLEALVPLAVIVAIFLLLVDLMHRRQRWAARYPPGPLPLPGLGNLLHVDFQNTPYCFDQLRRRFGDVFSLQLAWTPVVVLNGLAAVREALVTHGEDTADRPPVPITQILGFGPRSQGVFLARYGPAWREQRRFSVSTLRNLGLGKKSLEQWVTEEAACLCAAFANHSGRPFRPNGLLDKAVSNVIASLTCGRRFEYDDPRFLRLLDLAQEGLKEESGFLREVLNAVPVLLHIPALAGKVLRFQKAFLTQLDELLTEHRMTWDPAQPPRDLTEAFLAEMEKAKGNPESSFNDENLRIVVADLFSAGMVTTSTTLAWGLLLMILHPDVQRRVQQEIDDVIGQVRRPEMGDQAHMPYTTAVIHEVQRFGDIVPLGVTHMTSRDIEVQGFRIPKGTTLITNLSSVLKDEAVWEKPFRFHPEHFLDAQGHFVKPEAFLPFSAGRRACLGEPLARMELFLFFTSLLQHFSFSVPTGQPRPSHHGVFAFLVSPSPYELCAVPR
Experimental: (§2) CYP2C9, CYP3A4, CYP1A2 and CYP2D6 assays were performed to assess metabolism and inhibition of human P450 isozymes involved using Vivid® CYP450 screening kits and CYP450 BACULOSOMES® Plus Reagents. CYP450 BACULOSOMES® Plus Reagents express only one CYP450 enzyme, preventing metabolism by other CYP450s. For CYP2C9, the substrate was BOMF and the positive control inhibitor sulfaphenazole; for CYP3A4, DBOMF was the substrate and ketoconazole the positive control inhibitor; for CYP1A2, the substrate was EOMCC and the positive control inhibitor naphthoflavone; for CYP2D6, the substrate was EOMCC and the positive control inhibitor quinidine. The assays were performed using the excitation and emission wavelengths recommended by the manufacturer. […] The plate was incubated for 10 min at room temperature (25 ± 1 °C) on a plate shaker. Then, 10 μL of Vivid® Substrate was added to each well to start the reaction. […] The assay was done in triplicate. The reading was performed at 1 min intervals for 60 min. Inhibition was calculated as (1 − (X − B/A − B)) × 100%, where X was the average of compound fluorescence, A was the average of solvent control and B was the average of inhibition in the presence of positive inhibitor control. The percent inhibition was calculated relative to a fixed concentration of the positive control. […]

[2] = Total antioxidant capacity assay kit (ABTS, Trolox equivalents); conditions: with respect to Trolox
CYP1A2 = target: T5, CYP1A2 (Homo sapiens, UniProt P05177); test: Vivid CYP450 screening kit, CYP1A2; conditions: 0.01-100 μM
T5 sequence (P05177 1-516): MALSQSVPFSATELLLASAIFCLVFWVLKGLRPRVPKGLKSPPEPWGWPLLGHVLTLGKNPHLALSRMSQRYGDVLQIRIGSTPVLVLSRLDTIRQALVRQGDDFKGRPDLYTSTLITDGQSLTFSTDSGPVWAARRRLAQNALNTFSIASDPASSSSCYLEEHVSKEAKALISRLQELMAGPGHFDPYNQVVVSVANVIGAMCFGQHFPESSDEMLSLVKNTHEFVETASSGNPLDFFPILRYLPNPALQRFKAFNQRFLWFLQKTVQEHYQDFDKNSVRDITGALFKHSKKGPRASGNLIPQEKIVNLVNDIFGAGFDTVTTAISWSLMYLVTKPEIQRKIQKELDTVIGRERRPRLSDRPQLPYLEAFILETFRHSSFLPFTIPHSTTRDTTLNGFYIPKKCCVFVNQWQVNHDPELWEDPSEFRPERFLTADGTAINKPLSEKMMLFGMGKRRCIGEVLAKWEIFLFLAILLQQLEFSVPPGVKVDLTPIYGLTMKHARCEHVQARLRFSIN
Experimental: as §2

COX-1 = target: T6, COX-1 (Ovis aries, UniProt P05979); test: COX inhibitor screening assay kit, COX-1; assay type: biochemical; conditions: mean ± SD
T6 construct: purchased Cayman Chemical 560131
T6 sequence (P05979 25-600): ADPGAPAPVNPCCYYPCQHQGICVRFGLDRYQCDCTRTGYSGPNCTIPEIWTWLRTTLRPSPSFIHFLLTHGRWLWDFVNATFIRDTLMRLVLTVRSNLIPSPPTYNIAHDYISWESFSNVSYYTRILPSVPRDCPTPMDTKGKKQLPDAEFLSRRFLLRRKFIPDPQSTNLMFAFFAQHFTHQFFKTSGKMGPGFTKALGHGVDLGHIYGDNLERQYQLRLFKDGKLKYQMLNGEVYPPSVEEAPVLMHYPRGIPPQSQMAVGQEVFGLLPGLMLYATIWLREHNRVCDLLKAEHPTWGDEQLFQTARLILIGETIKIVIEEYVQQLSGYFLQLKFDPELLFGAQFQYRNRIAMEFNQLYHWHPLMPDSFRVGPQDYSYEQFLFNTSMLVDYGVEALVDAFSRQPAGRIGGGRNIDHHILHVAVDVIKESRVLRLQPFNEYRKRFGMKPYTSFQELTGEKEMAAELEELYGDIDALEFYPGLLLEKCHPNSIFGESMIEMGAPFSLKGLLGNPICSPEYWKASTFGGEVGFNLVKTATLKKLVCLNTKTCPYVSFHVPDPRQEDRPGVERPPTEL
Experimental: The assay was performed in quadruplet using a COX Inhibitor Screening Assay Kit from Cayman Chemical (Cat. No. 560131) according to the manufacturer’s instructions.

Sup-T1 cells = test: Cellular growth inhibition assay (MTS); assay type: cell-based; conditions: for IC50: Homo sapiens
Experimental: The CellTiter 96® AQueous One Solution Cell Proliferation Assay (MTS, Promega, Madison, WI, USA) was used to measure proliferation inhibition of cultured cells. Briefly, Sup-T1 cells were cultured in RPMI 1640 supplemented with 10% FBS and 1% penicillin/streptomycin at 37 °C and 5% CO2. […] The MTS reagent was added and incubated for 4 h. […] Sup-T1 cells were used in this study because curcuminoids are thought in part to work via an HDAC inhibitor mechanism and as some HDACs are approved for some T-cell lymphomas, we used Sup-T1 cells because they are a T-cell lymphoma cell line that is established. To the best of our knowledge no other study has measured the effects of THC on Sup-T1 cells.
as §1

[3] = tested on: TNF-α release in Sup-T1 cells; test: Cellular inflammatory cytokine release assay (TNF-α ELISA); assay type: cell-based, human; conditions: Sup-T1 cells, 5, 10, 50 and 100 μM, versus no-treatment control
Experimental: Cell culture supernatant was collected and used to determine released TNF-α using the Human TNF-alpha DuoSet ELISA kit (DY210, R & D systems, Minneapolis, MN, USA) following the standard manufacturer’s protocol, optimized using recombinant TNF-α. […] The data were analyzed using SigmaPlot 12.2 (Systat Software Inc., San Jose, CA, USA).

CYP2C9 = target: T7, CYP2C9 (Homo sapiens, UniProt P11712); test: Vivid CYP450 screening kit, CYP2C9; assay type: in vitro ADME; conditions: 0.01-100 μM, relative to sulfaphenazole
T7 construct: purchased Life Technologies P2860
T7 sequence (P11712 whole entry): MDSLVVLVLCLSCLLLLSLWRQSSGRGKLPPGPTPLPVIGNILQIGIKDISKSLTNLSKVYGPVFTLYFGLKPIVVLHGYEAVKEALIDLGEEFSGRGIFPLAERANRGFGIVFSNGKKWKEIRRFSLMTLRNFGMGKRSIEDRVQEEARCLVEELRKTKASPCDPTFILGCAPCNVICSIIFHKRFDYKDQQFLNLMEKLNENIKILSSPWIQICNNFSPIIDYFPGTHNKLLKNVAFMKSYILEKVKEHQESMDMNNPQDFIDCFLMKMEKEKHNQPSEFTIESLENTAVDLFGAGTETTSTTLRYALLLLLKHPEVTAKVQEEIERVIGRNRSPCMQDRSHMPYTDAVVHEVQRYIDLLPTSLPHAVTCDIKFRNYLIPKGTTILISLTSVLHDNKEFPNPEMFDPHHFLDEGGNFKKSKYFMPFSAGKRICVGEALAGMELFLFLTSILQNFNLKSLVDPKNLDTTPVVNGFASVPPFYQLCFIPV

CYP3A4 = CYP3A4 (Homo sapiens, UniProt P08684); test: Vivid CYP450 screening kit, CYP3A4; conditions: 0.01-100 μM, relative to ketoconazole; to a lesser extent than CYP2C9
CYP3A4, sequence (P08684 whole entry): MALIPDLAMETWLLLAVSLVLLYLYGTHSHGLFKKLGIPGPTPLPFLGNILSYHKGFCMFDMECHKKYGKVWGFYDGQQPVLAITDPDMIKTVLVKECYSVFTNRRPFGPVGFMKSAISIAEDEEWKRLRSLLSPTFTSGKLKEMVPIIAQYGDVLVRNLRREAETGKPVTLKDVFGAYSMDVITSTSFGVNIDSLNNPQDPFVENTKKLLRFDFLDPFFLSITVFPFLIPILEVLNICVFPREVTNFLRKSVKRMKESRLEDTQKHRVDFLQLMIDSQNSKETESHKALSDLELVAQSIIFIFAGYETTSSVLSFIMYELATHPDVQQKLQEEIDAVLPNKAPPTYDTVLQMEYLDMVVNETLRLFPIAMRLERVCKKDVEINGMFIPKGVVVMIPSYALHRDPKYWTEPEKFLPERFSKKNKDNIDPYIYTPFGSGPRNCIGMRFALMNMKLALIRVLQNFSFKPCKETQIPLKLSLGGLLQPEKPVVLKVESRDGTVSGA
Experimental: as §2

[4] = Pharmacokinetic study of THC after oral gavage, serum and urine by UHPLC-MS/MS; conditions: rat, 500 mg/kg oral
[5] = SUP-T1, read-out: Viability IC50

Row | Compound | lipoxygenase inhibition (in words) [1] | IC50 (PCAF) | COX-2/COX-1 IC50 ratio (COX-2) | CYP2D6 inhibition (in words) (CYP2D6) | concentration of greatest antioxidant effect [2] | CYP1A2 inhibition (in words) (CYP1A2) | IC50 (COX-1) | change in TNF-α concentration (in words) [3] | CYP2C9 inhibition (in words) (CYP2C9) | CYP3A4 inhibition (in words) (CYP3A4) | lowest concentration inhibiting lipoxygenase [1] | IC50 (Sup-T1 cells; [5]) | also measured
1 | COc1cc(/C=C/C(=O)COC(=O)/C=C/c2ccc(O)c(OC)c2)ccc1O [Calebin-A, calebin-A] | did not show any activity | 200 ± 31 µM | around 1 | did not show a consistent dose-response inhibition | 100 µM | did not show a consistent dose-response inhibition | 1070 ± 490 µM | no dose-response change | dose-dependent inhibition | dose-dependent inhibition | – | – | lipoxygenase inhibition (in words) ([1]; listed as calebin-A): no such inhibitory activity; fold less potent than curcumin, PCAF inhibition (PCAF; ratio of PCAF IC50): 6 fold; IC50 (COX-2; mean ± SD, read-out: COX-2 IC50): 784 ± 2200 µM; IC50 (HDAC1; mean ± SD): 61.3 ± 11 µM; IC50 (Sup-T1 cells; Sup-T1 growth inhibition, MTS, mean ± SD, read-out: Viability IC50): 26.2 ± 17 µM
2 | COc1cc(/C=C/C(=O)CC(=O)/C=C/c2ccc(O)c(OC)c2)ccc1O [Curcumin, curcumin] | inhibited soybean 1,5-lipoxygenase at all doses tested | 33.1 ± 2.8 µM | – | – | – | – | 3390 ± 8980 µM | slight decrease | – | – | ≤ 1 µM | 19 ± 11 µM | –
3 | COc1cc(CCC(=O)CC(=O)CCc2ccc(O)c(OC)c2)ccc1O [THC, tetrahydrocurcumin] | inhibited soybean 1,5-lipoxygenase at all doses tested; also recorded: potent lipoxygenase inhibition | – | around 1 | did not show a consistent dose-response inhibition | 100 µM | did not show a consistent dose-response inhibition | 918 ± 1300 µM | no dose-response change | dose-dependent inhibition | dose-dependent inhibition | ≤ 1 µM | 82 ± 116 µM | PCAF inhibition (in words) (PCAF; 0.1-250 μg/mL): no inhibitory activity; IC50 (COX-2): 1350 ± 3640 µM; time of peak serum THC concentration [4]: 1 h; serum THC maxima of the two redistribution phases ([4]; at 6 and 24 h): about 1 μg/mL; maximum rate of urinary excretion ([4]; at 2 h): under 3 μg/h; total amount of THC excreted unchanged in urine ([4]; at 24 h): up to 8 μg; serum THC concentration found up to 20 h later ([4]; up to 20 h after the peak): greater than 1 μg/mL; HDAC1 inhibition (in words) (HDAC1; 0.1-250 μg/mL): no inhibitory activity; maximal growth inhibition (Sup-T1 cells; Sup-T1 cells, up to 100 μM): ≤ 40%
